The values that follow come from ChEMBL document CHEMBL5584296, “Discovery of Novel Pyrimidine-Based Derivatives as Nav1.2 Inhibitors with Efficacy in Mouse Models of Epilepsy” (J Med Chem, 2024).

In general, MRT inf refers to the average time that molecules of a dose stay in the body. As usually defined, the half-life is the time needed for the level to fall by half in the phase considered. High values mean slow loss, low ones fast loss. A word on the bioavailability: it is dose-corrected exposure relative to a reference, in per cent. For orientation: Cmax means the peak of the concentration-time curve. As usually defined, the clearance is the volume of plasma or blood freed of the substance per unit of time. The low end stands for a low capacity for elimination, the high end for a high capacity for elimination. For orientation: TD50 means the 50% point of the dose-response relation for the toxic effect studied.

The target of data set [1] is Sodium channel protein type 2 subunit alpha (Homo sapiens, UniProt Q99250). The data set can be described thus: Inhibition of human Nav1.2 expressed in HEK293 cells assessed as test to control ratio at 0.1 uM measured after 5 mins by whole cell voltage clamp electrophysiological analysis. It counts as cell-based.
Data set [2] concerns the target Sodium channel protein type 1 subunit alpha (Homo sapiens) (UniProt P35498). Put plainly: Inhibition of human Nav1.1 expressed in HEK293 cells assessed as test to control ratio at 0.1 uM by whole cell voltage clamp electrophysiological analysis. In kind it is cell-based.
For data set [3], the target named is Sodium channel protein type 5 subunit alpha (Homo sapiens, UniProt Q14524). The data set can be described thus: Inhibition of human Nav1.5 expressed in CHL cells assessed as test to control ratio at 1 uM by whole cell voltage clamp electrophysiological analysis. In kind it is cell-based.
Chain of Sodium channel protein type 5 subunit alpha (Q14524 whole entry): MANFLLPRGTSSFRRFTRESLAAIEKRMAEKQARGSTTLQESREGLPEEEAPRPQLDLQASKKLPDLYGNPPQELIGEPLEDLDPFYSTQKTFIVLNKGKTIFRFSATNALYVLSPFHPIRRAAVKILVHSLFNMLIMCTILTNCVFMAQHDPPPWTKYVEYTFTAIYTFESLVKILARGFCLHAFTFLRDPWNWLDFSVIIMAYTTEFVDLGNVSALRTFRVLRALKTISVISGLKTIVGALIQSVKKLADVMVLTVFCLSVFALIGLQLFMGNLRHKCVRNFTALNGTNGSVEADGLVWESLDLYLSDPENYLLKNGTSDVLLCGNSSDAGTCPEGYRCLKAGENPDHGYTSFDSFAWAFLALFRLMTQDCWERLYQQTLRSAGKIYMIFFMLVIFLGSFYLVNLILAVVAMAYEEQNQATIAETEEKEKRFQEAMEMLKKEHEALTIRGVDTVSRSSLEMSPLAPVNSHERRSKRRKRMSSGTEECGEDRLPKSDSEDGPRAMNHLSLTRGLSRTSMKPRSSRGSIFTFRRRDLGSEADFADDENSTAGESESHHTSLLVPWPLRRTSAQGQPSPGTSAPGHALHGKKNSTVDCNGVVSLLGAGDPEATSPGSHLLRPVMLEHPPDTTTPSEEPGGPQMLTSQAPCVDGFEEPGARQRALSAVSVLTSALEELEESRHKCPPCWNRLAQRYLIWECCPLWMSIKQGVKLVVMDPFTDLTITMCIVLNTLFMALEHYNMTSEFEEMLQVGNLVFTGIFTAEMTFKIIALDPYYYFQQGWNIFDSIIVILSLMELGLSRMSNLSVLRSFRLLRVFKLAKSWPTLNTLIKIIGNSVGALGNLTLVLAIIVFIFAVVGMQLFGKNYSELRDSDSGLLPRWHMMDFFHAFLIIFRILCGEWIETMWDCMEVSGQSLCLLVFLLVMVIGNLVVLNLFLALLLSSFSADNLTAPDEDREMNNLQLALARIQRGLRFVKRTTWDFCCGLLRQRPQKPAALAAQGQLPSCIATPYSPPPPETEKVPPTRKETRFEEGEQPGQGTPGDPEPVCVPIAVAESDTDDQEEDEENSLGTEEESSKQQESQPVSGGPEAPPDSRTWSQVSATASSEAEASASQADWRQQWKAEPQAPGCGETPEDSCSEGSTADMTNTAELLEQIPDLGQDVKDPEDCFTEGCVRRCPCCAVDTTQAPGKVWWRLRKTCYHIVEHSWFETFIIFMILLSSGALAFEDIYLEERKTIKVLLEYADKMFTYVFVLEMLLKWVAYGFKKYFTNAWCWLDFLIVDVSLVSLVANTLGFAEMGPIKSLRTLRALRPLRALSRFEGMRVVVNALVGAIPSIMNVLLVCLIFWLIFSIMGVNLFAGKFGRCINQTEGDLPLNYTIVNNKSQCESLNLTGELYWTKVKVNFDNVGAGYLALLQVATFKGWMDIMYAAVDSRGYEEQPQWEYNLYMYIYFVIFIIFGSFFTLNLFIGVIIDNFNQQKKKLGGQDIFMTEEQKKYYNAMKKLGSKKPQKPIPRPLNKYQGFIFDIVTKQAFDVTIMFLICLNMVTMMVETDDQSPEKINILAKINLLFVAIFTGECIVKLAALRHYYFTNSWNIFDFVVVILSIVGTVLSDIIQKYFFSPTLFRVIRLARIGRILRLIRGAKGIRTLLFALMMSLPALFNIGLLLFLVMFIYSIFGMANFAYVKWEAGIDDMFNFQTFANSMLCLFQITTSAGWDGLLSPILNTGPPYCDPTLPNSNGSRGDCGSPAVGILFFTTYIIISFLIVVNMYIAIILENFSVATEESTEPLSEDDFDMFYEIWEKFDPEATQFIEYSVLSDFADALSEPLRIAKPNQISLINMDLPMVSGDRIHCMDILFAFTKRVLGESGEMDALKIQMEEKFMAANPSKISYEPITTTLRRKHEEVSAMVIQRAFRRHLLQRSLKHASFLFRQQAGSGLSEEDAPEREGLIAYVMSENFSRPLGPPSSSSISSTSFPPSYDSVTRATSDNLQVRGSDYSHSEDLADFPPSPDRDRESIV
Data set [4] has as its target Sodium channel protein type 8 subunit alpha (Homo sapiens) (UniProt Q9UQD0). The data set can be described thus: Inhibition of human Nav1.6 expressed in CHO cells assessed as test to control ratio at 0.1 uM by whole cell voltage clamp electrophysiological analysis. It counts as cell-based.
For data set [5] the target is unchanged. The data set can be described thus: Inhibition of human Nav1.6 expressed in CHO cells assessed as test to control ratio at 1 uM by whole cell voltage clamp electrophysiological analysis. It counts as cell-based.
The nature of data set [6]: MRT (0 to infinity) in male ICR mouse at 20 mg/kg, po measured after 24 hrs by LC-MS/MS analysis. It counts as ADME, organism-based. To be noted: in vivo.
The nature of data set [7]: Half-life in male ICR mouse at 20 mg/kg, po measured after 24 hrs by LC-MS/MS analysis. The note with it: in vivo. In kind it is ADME, organism-based.
Data set [8] is described as follows: Oral bioavailability in male ICR mouse at 20 mg/kg measured after 24 hrs by LC-MS/MS analysis. The note with it: in vivo. In kind it is ADME, organism-based.
Data set [9] in a line: Cmax in male ICR mouse at 10 mg/kg, ip measured after 24 hrs by LC-MS/MS analysis. In kind it is ADME, organism-based. The note with it: in vivo.
Data set [10] is described as follows: Bioavailability in male ICR mouse at 10 mg/kg, ip measured after 24 hrs by LC-MS/MS analysis. In kind it is ADME, organism-based. The note with it: in vivo.
Data set [11] can be described thus: Clearance in male ICR mouse at 1 mg/kg, iv measured after 24 hrs by LC-MS/MS analysis. The note with it: in vivo. It counts as ADME, organism-based.
A short description of data set [12]: Half-life in male ICR mouse at 1 mg/kg, iv measured after 24 hrs by LC-MS/MS analysis. It counts as ADME, organism-based. To be noted: in vivo.
Data set [13] in a line: Drug concentration in male ICR mouse plasma at 10 mg/kg, ip measured after 0.5 hrs by LC-MS/MS analysis. It counts as ADME, organism-based.
The nature of data set [14]: Drug concentration in male ICR mouse brain at 20 mg/kg, po measured after 0.5 hrs by LC-MS/MS analysis. It counts as ADME, organism-based. The note with it: read-out: Ct.
The nature of data set [15]: Drug concentration in male ICR mouse cerebrospinal fluid at 10 mg/kg, ip measured after 0.25 hrs by LC-MS/MS analysis. It counts as ADME, organism-based. The note with it: read-out: Ct.
The subject of another data set is Mus musculus. The data set can be described thus: Antiepileptic activity in MES-induced seizure male ICR mouse model assessed as protection against tonic hind limb extension at 2 mg/kg, ip measured after 30 mins relative to control. It counts as functional. To be noted: 0.5 h.
Data set [16] in a line: Neurotoxicity in male ICR mouse administered intraperitoneally for 30 mins. It counts as toxicity. To be noted: in vivo, route ip.

Chain of Sodium channel protein type 8 subunit alpha (Homo sapiens) (Q9UQD0 whole entry, looked up): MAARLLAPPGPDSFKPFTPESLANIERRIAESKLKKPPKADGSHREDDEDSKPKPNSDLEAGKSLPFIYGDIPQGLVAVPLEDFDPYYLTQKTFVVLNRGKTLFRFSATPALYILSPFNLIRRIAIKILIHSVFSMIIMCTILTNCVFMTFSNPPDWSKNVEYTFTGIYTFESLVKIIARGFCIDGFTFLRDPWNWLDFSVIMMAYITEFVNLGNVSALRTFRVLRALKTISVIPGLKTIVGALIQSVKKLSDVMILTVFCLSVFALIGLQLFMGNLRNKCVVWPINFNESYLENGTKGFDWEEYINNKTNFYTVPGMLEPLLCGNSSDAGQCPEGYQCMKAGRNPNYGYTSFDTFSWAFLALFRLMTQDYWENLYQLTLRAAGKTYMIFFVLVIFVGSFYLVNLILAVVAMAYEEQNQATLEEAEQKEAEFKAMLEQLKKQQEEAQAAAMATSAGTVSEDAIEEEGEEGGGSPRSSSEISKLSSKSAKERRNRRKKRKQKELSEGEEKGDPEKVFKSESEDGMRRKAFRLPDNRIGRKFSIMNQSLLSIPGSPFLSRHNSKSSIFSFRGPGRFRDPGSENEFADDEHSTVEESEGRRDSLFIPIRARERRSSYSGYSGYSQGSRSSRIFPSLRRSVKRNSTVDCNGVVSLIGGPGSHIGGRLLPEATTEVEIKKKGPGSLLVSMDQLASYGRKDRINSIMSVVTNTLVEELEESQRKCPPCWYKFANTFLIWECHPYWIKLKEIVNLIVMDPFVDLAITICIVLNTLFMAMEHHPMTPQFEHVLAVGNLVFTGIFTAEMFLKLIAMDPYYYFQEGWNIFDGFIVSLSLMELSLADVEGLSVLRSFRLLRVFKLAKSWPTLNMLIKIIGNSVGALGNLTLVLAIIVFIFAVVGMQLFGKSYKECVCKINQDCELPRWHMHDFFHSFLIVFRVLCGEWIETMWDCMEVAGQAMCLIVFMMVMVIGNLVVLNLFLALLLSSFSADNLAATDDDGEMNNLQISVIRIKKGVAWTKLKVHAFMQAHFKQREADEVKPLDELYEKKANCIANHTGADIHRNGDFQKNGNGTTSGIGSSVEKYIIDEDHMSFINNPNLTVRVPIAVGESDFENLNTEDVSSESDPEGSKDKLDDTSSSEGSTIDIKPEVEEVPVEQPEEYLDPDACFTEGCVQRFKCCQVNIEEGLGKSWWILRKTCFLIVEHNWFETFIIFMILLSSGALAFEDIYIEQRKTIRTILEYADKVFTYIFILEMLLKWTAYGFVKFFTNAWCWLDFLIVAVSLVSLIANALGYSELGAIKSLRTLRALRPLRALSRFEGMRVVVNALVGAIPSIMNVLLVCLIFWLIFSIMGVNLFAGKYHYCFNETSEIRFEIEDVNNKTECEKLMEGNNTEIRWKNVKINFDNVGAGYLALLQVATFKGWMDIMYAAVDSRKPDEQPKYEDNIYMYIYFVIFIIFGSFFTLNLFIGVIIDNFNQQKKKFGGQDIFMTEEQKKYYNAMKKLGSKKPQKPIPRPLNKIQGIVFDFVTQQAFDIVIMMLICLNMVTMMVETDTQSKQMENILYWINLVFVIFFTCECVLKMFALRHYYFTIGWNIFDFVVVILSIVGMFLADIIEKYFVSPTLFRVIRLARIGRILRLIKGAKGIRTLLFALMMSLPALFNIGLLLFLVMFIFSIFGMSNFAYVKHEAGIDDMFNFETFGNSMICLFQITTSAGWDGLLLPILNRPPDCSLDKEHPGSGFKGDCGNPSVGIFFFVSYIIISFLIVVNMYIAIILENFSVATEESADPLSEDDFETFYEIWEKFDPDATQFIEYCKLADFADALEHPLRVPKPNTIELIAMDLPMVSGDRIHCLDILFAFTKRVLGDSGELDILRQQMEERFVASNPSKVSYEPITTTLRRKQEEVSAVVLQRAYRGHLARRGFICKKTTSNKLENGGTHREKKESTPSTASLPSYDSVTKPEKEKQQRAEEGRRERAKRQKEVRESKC

With `COc1cccc(-c2cc(N3CCCc4ccccc4C3)nc(N)n2)c1`, the T/C is 0.6 in data set [1]; 0.65 in data set [2]; 0.06 in data set [3]; 0.53 in [4]; 0.06 in [5]. The molecule also gave an MRT inf in data set [6] of 2.16 h. For the same molecule, the results for the half-life in data set [7] and in [12] were 1.38 h and 0.52 h, respectively. Moreover, the bioavailability in data set [8] was 3%; in data set [10] it was 43%. The molecule also displayed a Cmax in data set [9] of 956 ng/mL. The clearance in data set [11] turned out to be 92.1 mL/min/kg. Further, the concentration at 0.5 h in [13] was 221 ng/mL; in data set [14], 59.3 ng/g. Further, in data set [15], the concentration at 0.25 h worked out at 11.7 ng/g. Besides, the Activity in the data set with Mus musculus is 25%. Besides, in data set [16], the TD50 at 0.5 h stood at 26.1 mg/kg.
